Experimental data published in patent publication US20240360101A1, “PHARMACEUTICAL SALTS OF A CHK-1 INHIBITOR” (SENTINEL ONCOLOGY LIMITED, priority 2021, published 2024).
Counter-ions that a name gives are not always drawn.

What was measured:
[1] = Gravimetric vapour sorption (GVS); format: physicochemical; settings: for GVS weight loss, initial desorption cycle: from 50% RH to 0% RH; for GVS water gain, subsequent sorption cycle: up to 90% RH; for crystalline form (XRPD) after GVS at extremes of humidity: 0% RH and 90% RH, result in words
Procedure: Sorption isotherms were obtained using a Hiden Isochema moisture sorption analyser (model IGAsorp), controlled by IGAsorp Systems Software V6.50.48. The sample was maintained at a constant temperature (25° C.) by the instrument controls. The humidity was controlled by mixing streams of dry and wet nitrogen, with a total flow of 250 ml·min−. The instrument was verified for relative humidity (RH) content by measuring three calibrated Rotronic salt solutions (10-50-88%). The weight change of the sample was monitored as a function of humidity by a microbalance (accuracy+/−0.005 mg). A defined amount of sample was placed in a tared mesh stainless steel basket under ambient conditions. A full experimental cycle typically consisted of three scans (sorption, desorption and sorption) at a constant temperature (25° C.) and 10% RH intervals over a 0-90% range (60 minutes for each humidity level).

[2] = Solubility of the salts in biorelevant media; format: physicochemical; settings: for solubility FaSSGF (pH 1.37): Fasted State Simulated Gastric Fluid; for solubility FaSSGF (pH 1.37) / solubility FaSSIF (pH 6.71) / solubility FeSSIF (pH 5.14): 25° C., 24 h, HPLC; for solubility FaSSIF (pH 6.71): Fasted State Simulated Intestinal Fluid; for solubility FeSSIF (pH 5.14): Fed State Simulated Intestinal Fluid; for solubility in FaSSGF (gastric fluid) compared with the free base: result in words
Procedure: Biorelevant media (DI H2O, FeSSIF, FaSSIF and FaSSGF) (2 mL) was charged. Samples were left to equilibrate (25° C.) over 24 h. Solubility measurements were taken using HPLC (see Method 1 above).

[3] = Two-week stability (HPLC purity); format: physicochemical; settings: two-week storage at 25° C./60% RH and 40° C./75% RH; result in words
Procedure: HPLC analysis was carried out on an Agilent 1110/1200 series HPLC system. The column used was an Triart C18; 150×4.6 mm, 3.0 μm particle size (Ex Waters, PN: 186004644). The flow rate was 1.0 mL/min. Mobile phase A was Water:Trifluoroacetic acid (100:0.1%) and mobile phase B was Acetonitrile:Trifluoroacetic acid (100:0.1%). Detection was by UV at 302 nm. The injection volume was 5 μL, column temperature 40° C. and the following gradient was used: […]
Experimental: Maleate salt pattern B (30 mg) was placed into separate 15 mL type I glass vials. To these vials, a HDPE plastic cap was loosely attached to allow the ingress of moisture. The vials were then placed into ICH rated stability cabinets at 25° C./60% RH and 40° C./75% RH and in cold storage at 2-8° C. Following 2 weeks of storage these samples were removed from the stability cabinets and cold storage and the chemical purity assessed by HPLC (method 2). The relevant data was collected using a wavelength of 302 nm. The samples were prepared in MeCN:water (1:1).

COc1cc(C2(F)CCN(C)CC2)ccc1-c1cc(Nc2cnc(C#N)cn2)n[nH]1 [Besylate Pattern A, 5-[[5-[4-(4-fluoro-1-methyl-4-piperidyl)-2-methoxy-phenyl]-1H-pyrazol-3-yl]amino]pyrazine-2-carbonitrile]
GVS sharp increase, sorption cycle ([1]; from 40% RH to 60% RH): 6% | GVS weight loss, initial desorption cycle ([1]; 25° C.): 2.5 wt % | GVS steady decrease, following desorption cycle ([1]; from 90% RH to 30% RH): ~3 wt % | GVS water gain, subsequent sorption cycle ([1]; 25° C.): 10%

COc1cc(C2(F)CCN(C)CC2)ccc1-c1cc(Nc2cnc(C#N)cn2)n[nH]1 [Besylate Pattern C, 5-[[5-[4-(4-fluoro-1-methyl-4-piperidyl)-2-methoxy-phenyl]-1H-pyrazol-3-yl]amino]pyrazine-2-carbonitrile]
GVS sharp increase, sorption cycle ([1]; between 0% RH and 20% RH): ~2.5 wt % | GVS weight loss, initial desorption cycle ([1]; 25° C.): ~3 wt % | GVS water gain, subsequent sorption cycle ([1]; 25° C.): 3.75%

COc1cc(C2(F)CCN(C)CC2)ccc1-c1cc(Nc2cnc(C#N)cn2)n[nH]1 [Maleate Pattern A, 5-[[5-[4-(4-fluoro-1-methyl-4-piperidyl)-2-methoxy-phenyl]-1H-pyrazol-3-yl]amino]pyrazine-2-carbonitrile]
crystalline form (XRPD) after GVS at extremes of humidity [1]: A new pattern was isolated at 0 and 90% RH and was named B | GVS weight gain at 90% RH, following sorption cycles ([1]; 90% RH, following sorption cycles): 4 wt % | GVS water loss, subsequent desorption cycle ([1]; down to 0% RH, 25° C.): 4% | GVS weight gain, initial sorption cycle ([1]; from 50% RH to 90% RH, 25° C.): 1.5 wt %

COc1cc(C2(F)CCN(C)CC2)ccc1-c1cc(Nc2cnc(C#N)cn2)n[nH]1 [Naphthalene-2-Sulfonate Pattern A, 5-[[5-[4-(4-fluoro-1-methyl-4-piperidyl)-2-methoxy-phenyl]-1H-pyrazol-3-yl]amino]pyrazine-2-carbonitrile]
crystalline form (XRPD) after GVS at extremes of humidity [1]: no change in the crystallinity of the solid occurred at extremes of humidity | GVS weight loss, initial desorption cycle ([1]; 25° C.): 1 wt % | GVS water gain, subsequent sorption cycle ([1]; 25° C.): ~2.25%

COc1cc(C2(F)CCN(C)CC2)ccc1-c1cc(Nc2cnc(C#N)cn2)n[nH]1 [Tosylate Pattern A, 5-[[5-[4-(4-fluoro-1-methyl-4-piperidyl)-2-methoxy-phenyl]-1H-pyrazol-3-yl]amino]pyrazine-2-carbonitrile]
crystalline form (XRPD) after GVS at extremes of humidity [1]: No form change at 0% RH and 90% RH | GVS sharp decrease, initial desorption ([1]; from 10% RH to 0% RH): ~3 wt % | GVS steady increase, subsequent sorption ([1]; from 10% RH to 90% RH): ~1% | GVS weight loss, initial desorption cycle ([1]; 25° C.): 3.5 wt % | GVS steady decrease, initial desorption ([1]; from 50% RH to 10% RH): 0.5 wt % | GVS sharp water gain, subsequent sorption ([1]; up to 10% RH): ~3%

COc1cc(C2(F)CCN(C)CC2)ccc1-c1cc(Nc2cnc(C#N)cn2)n[nH]1 [besylate pattern B, 5-[[5-[4-(4-fluoro-1-methyl-4-piperidyl)-2-methoxy-phenyl]-1H-pyrazol-3-yl]amino]pyrazine-2-carbonitrile]
solubility FaSSGF (pH 1.37) [2]: 0.55 mg/mL | solubility FaSSIF (pH 6.71) [2]: 0.04 mg/mL | solubility FeSSIF (pH 5.14) [2]: 0.57 mg/mL | GVS weight loss, initial desorption cycle ([1]; 25° C.): 1 wt % | GVS water gain, subsequent sorption cycle ([1]; 25° C.): ~2.25% | Aqueous solubility mg/mL 24 h: 1.18 mg/mL

COc1cc(C2(F)CCN(C)CC2)ccc1-c1cc(Nc2cnc(C#N)cn2)n[nH]1 [bis-besylate pattern B, 5-[[5-[4-(4-fluoro-1-methyl-4-piperidyl)-2-methoxy-phenyl]-1H-pyrazol-3-yl]amino]pyrazine-2-carbonitrile]
Aqueous solubility mg/mL 24 h: 0.06 mg/mL

COc1cc(C2(F)CCN(C)CC2)ccc1-c1cc(Nc2cnc(C#N)cn2)n[nH]1 [bis-maleate pattern B, 5-[[5-[4-(4-fluoro-1-methyl-4-piperidyl)-2-methoxy-phenyl]-1H-pyrazol-3-yl]amino]pyrazine-2-carbonitrile]
Aqueous solubility mg/mL 24 h: 0.15 mg/mL

COc1cc(C2(F)CCN(C)CC2)ccc1-c1cc(Nc2cnc(C#N)cn2)n[nH]1 [hydrochloride pattern C, 5-[[5-[4-(4-fluoro-1-methyl-4-piperidyl)-2-methoxy-phenyl]-1H-pyrazol-3-yl]amino]pyrazine-2-carbonitrile]
solubility FaSSGF (pH 1.37) [2]: 8.39 mg/mL | solubility FaSSIF (pH 6.71) [2]: 0.15 mg/mL | solubility FeSSIF (pH 5.14) [2]: 0.61 mg/mL | Aqueous solubility mg/mL 24 h: 10.37 mg/mL

COc1cc(C2(F)CCN(C)CC2)ccc1-c1cc(Nc2cnc(C#N)cn2)n[nH]1 [maleate salt, 5-[[5-[4-(4-fluoro-1-methyl-4-piperidyl)-2-methoxy-phenyl]-1H-pyrazol-3-yl]amino]pyrazine-2-carbonitrile maleate]
solubility in FaSSGF (gastric fluid) compared with the free base ([2]; listed as maleate, maleate): improved solubility over the free base in FaSSGF | solubility in FaSSGF (gastric fluid) compared with the free base ([2]; maleate): improved solubility in gastric fluid | physical, polymorphic and chemical stability on storage [3]: remained as a free flowing solid with no evidence of deliquescence or agglomeration and no change in polymorphic form with good chemical stability

COc1cc(C2(F)CCN(C)CC2)ccc1-c1cc(Nc2cnc(C#N)cn2)n[nH]1 [malonate pattern B, 5-[[5-[4-(4-fluoro-1-methyl-4-piperidyl)-2-methoxy-phenyl]-1H-pyrazol-3-yl]amino]pyrazine-2-carbonitrile]
solubility FaSSGF (pH 1.37) [2]: 3.24 mg/mL | solubility FeSSIF (pH 5.14) [2]: 0.27 mg/mL | GVS sharp increase, sorption cycle ([1]; between 30% RH and 40% RH): ~3 wt % | GVS weight loss, initial desorption cycle ([1]; 25° C.): 5 wt % | GVS water gain, subsequent sorption cycle ([1]; 25° C.): 7.5% | Aqueous solubility mg/mL 24 h: 7.41 mg/mL

COc1cc(C2(F)CCN(C)CC2)ccc1-c1cc(Nc2cnc(C#N)cn2)n[nH]1 [malonate, 5-[[5-[4-(4-fluoro-1-methyl-4-piperidyl)-2-methoxy-phenyl]-1H-pyrazol-3-yl]amino]pyrazine-2-carbonitrile]
solubility in FaSSGF (gastric fluid) compared with the free base [2]: improved solubility over the free base in FaSSGF

COc1cc(C2(F)CCN(C)CC2)ccc1-c1cc(Nc2cnc(C#N)cn2)n[nH]1 [oxalate pattern A, 5-[[5-[4-(4-fluoro-1-methyl-4-piperidyl)-2-methoxy-phenyl]-1H-pyrazol-3-yl]amino]pyrazine-2-carbonitrile]
Aqueous solubility mg/mL 24 h: 3.16 mg/mL

COc1cc(C2(F)CCN(C)CC2)ccc1-c1cc(Nc2cnc(C#N)cn2)n[nH]1 [sulphate pattern D, 5-[[5-[4-(4-fluoro-1-methyl-4-piperidyl)-2-methoxy-phenyl]-1H-pyrazol-3-yl]amino]pyrazine-2-carbonitrile]
Aqueous solubility mg/mL 24 h: 1.6 mg/mL

COc1cc(C2(F)CCN(C)CC2)ccc1-c1cc(Nc2cnc(C#N)cn2)n[nH]1 [tosylate pattern C, 5-[[5-[4-(4-fluoro-1-methyl-4-piperidyl)-2-methoxy-phenyl]-1H-pyrazol-3-yl]amino]pyrazine-2-carbonitrile]
solubility FaSSGF (pH 1.37) [2]: 0.32 mg/mL | solubility FaSSIF (pH 6.71) [2]: 0.04 mg/mL | solubility FeSSIF (pH 5.14) [2]: 0.61 mg/mL | Aqueous solubility mg/mL 24 h: 1.55 mg/mL
